Laboratory results as given in patent publication US10633379B2, “Bromodomain inhibitors” (AbbVie Inc., priority 2016, dated 2020).

Assays:
BRD4 (BDI_K57-E168) = BRD4 (BDI_K57-E168) (Homo sapiens (Human), UniProt O60885); test: TR-FRET bromodomain binding assay, BRD4 BDI; settings: mean Ki, calculated from IC50, probe Kd and probe concentration
Protocol: (§1) A time-resolved fluorescence resonance energy transfer (TR-FRET) assay was used to determine the affinities of compounds of the Examples listed in Table 1 for each bromodomain of BRD4. His-tagged first (BDI: amino acids K57-E168) and second (BDII: amino acids E352-M457) bromodomains of BRD4 were expressed and purified. An Alexa647-labeled BET-inhibitor was used as the fluorescent probe in the assay.
(§2) Compound dilution series were prepared in DMSO via an approximately 3-fold serial dilution. Compound dilutions were added directly into white, low-volume assay plates (Perkin Elmer Proxiplate 384 Plus#6008280) using a Labcyte Echo in conjunction with Labcyte Access and Thermo Multidrop CombinL robotics. Compounds were then suspended in eight microliters (μL) of assay buffer (20 mM Sodium Phosphate, pH 6.0, 50 mM NaCl, 1 mM Ethylenediaminetetraacetic acid disodium salt dihydrate, 0.01% Triton X-100, 1 mM DL-Dithiothreitol) containing His-tagged bromodomain, Europium-conjugated anti-His antibody (Invitrogen PV5596) and Alexa-647-conjugated probe.
(§3) The final concentration of 1× assay mixture contained 2% DMSO, 12 nM His tagged BRD4 (BDI_K57-E168) and 100 nM probe or 4 nM His tagged BRD4 (BDII_E352-M457) and 30 nM probe, and 1 nM Europium-conjugated anti-His-tag antibody, and compound concentrations in the range of: 49.02 μM-0.61 nM or 0.98 μM-0.15 nM.
(§4) After a one-hour equilibration at room temperature, TR-FRET ratios were determined using an Envision multilabel plate reader (Ex 340, Em 495/520).
(§5) TR-FRET data were normalized to the means of 24 no-compound controls (“high”) and 8 controls containing 1 μM un-labeled probe (“low”). Percent inhibition was plotted as a function of compound concentration and the data were fit with the 4 parameter logistic equation to obtain IC50s. Inhibition constants (Ki) were calculated from the IC50s, probe Kd and probe concentration.

BRD4 (BDII_E352-M457) = BRD4 (BDII_E352-M457) (Homo sapiens (Human), UniProt O60885); test: TR-FRET bromodomain binding assay, BRD4 BDII; settings: mean Ki, calculated from IC50, probe Kd and probe concentration
Protocol: as §1, §2, §3, §4, §5

In the case of `CCNC(=O)c1cc2c(-c3cc(C(C)(O)c4ccccc4)cnc3Oc3c(C)cccc3C)cn(C)c(=O)c2[nH]1` (stereo not drawn) [Example 16, 4-[2-(2,6-dimethylphenoxy)-5-(1-hydroxy-1-phenylethyl)pyridin-3-yl]-N-ethyl-6-methyl-7-oxo-6,7-dihydro-1H-pyrrolo[2,3-c]pyridine-2-carboxamide], the Ki (BRD4 (BDI_K57-E168)) is reported as 333 nM and the Ki (BRD4 (BDII_E352-M457)) is reported as 2.3 nM.

`CCNC(=O)c1cc2c(-c3cc(C(C)(O)c4ccc(F)cc4)cnc3Oc3c(C)cccc3C)cn(C)c(=O)c2[nH]1` (stereo not drawn) [Example 17, 4-{2-(2,6-dimethylphenoxy)-5-[1-(4-fluorophenyl)-1-hydroxyethyl]pyridin-3-yl}-N-ethyl-6-methyl-7-oxo-6,7-dihydro-1H-pyrrolo[2,3-c]pyridine-2-carboxamide] showed a Ki (BRD4 (BDI_K57-E168)) of 467 nM and a Ki (BRD4 (BDII_E352-M457)) of 3 nM.

`CCNC(=O)c1cc2c(-c3cc(C(C)(O)CC(C)C)cnc3Oc3c(C)cccc3C)cn(C)c(=O)c2[nH]1` (stereo not drawn) [Example 18, 4-[2-(2,6-dimethylphenoxy)-5-(2-hydroxy-4-methylpentan-2-yl)pyridin-3-yl]-N-ethyl-6-methyl-7-oxo-6,7-dihydro-1H-pyrrolo[2,3-c]pyridine-2-carboxamide] gave a Ki (BRD4 (BDI_K57-E168)) of 449 nM and a Ki (BRD4 (BDII_E352-M457)) of 3.8 nM.

Compound `CCNC(=O)c1cc2c(-c3cc(C(C)(O)C(C)C)cnc3Oc3c(C)cccc3C)cn(C)c(=O)c2[nH]1` (stereo not drawn) [Example 19, 4-[2-(2,6-dimethylphenoxy)-5-(2-hydroxy-3-methylbutan-2-yl)pyridin-3-yl]-N-ethyl-6-methyl-7-oxo-6,7-dihydro-1H-pyrrolo[2,3-c]pyridine-2-carboxamide] has a Ki (BRD4 (BDI_K57-E168)) of 196 nM and a Ki (BRD4 (BDII_E352-M457)) of 4 nM.

`CCNC(=O)c1cc2c(-c3cc(C(C)(O)C(C)CC)cnc3Oc3c(C)cccc3C)cn(C)c(=O)c2[nH]1` (stereo not drawn) [Example 20, 4-[2-(2,6-dimethylphenoxy)-5-(2-hydroxy-3-methylpentan-2-yl)pyridin-3-yl]-N-ethyl-6-methyl-7-oxo-6,7-dihydro-1H-pyrrolo[2,3-c]pyridine-2-carboxamide] showed a Ki (BRD4 (BDI_K57-E168)) of 363 nM and a Ki (BRD4 (BDII_E352-M457)) of 3.1 nM.

`CCNC(=O)c1cc2c(-c3cc(C(C)(O)CCc4ccccc4)cnc3Oc3c(C)cccc3C)cn(C)c(=O)c2[nH]1` (stereo not drawn) [Example 21, 4-[2-(2,6-dimethylphenoxy)-5-(2-hydroxy-4-phenylbutan-2-yl)pyridin-3-yl]-N-ethyl-6-methyl-7-oxo-6,7-dihydro-1H-pyrrolo[2,3-c]pyridine-2-carboxamide] gave a Ki (BRD4 (BDI_K57-E168)) of 521 nM and a Ki (BRD4 (BDII_E352-M457)) of 1.5 nM.

Work on `CCNC(=O)c1cc2c(-c3cc(C(C)(O)Cc4ccc(F)cc4)cnc3Oc3c(C)cccc3C)cn(C)c(=O)c2[nH]1` (stereo not drawn) [Example 22, 4-{2-(2,6-dimethylphenoxy)-5-[1-(4-fluorophenyl)-2-hydroxypropan-2-yl]pyridin-3-yl}-N-ethyl-6-methyl-7-oxo-6,7-dihydro-1H-pyrrolo[2,3-c]pyridine-2-carboxamide] yielded a Ki (BRD4 (BDI_K57-E168)) of 2500 nM and a Ki (BRD4 (BDII_E352-M457)) of 10.5 nM.

With `CCNC(=O)c1cc2c(-c3cc(C(O)(c4ccc(F)cc4)C4CC4)cnc3Oc3c(C)cccc3C)cn(C)c(=O)c2[nH]1` (stereo not drawn) [Example 23, 4-{5-[cyclopropyl (4-fluorophenyl)hydroxymethyl]-2-(2,6-dimethylphenoxy)pyridin-3-yl}-N-ethyl-6-methyl-7-oxo-6,7-dihydro-1H-pyrrolo[2,3-c]pyridine-2-carboxamide] the Ki (BRD4 (BDI_K57-E168)) was 701 nM and the Ki (BRD4 (BDII_E352-M457)) was 3.2 nM.

With `CCNC(=O)c1cc2c(-c3cc(C(O)(C4CCCC4)C4CC4)cnc3Oc3c(C)cccc3C)cn(C)c(=O)c2[nH]1` (stereo not drawn) [Example 24, 4-{5-[cyclopentyl(cyclopropyl)hydroxymethyl]-2-(2,6-dimethylphenoxy)pyridin-3-yl}-N-ethyl-6-methyl-7-oxo-6,7-dihydro-1H-pyrrolo[2,3-c]pyridine-2-carboxamide] the Ki (BRD4 (BDI_K57-E168)) was 79 nM and the Ki (BRD4 (BDII_E352-M457)) was 1.7 nM.

Compound `CCNC(=O)c1cc2c(-c3cc(C(O)(C4CC4)C4CC4)cnc3Oc3c(C)cccc3C)cn(C)c(=O)c2[nH]1` [Example 25, 4-{5-[dicyclopropyl(hydroxy)methyl]-2-(2,6-dimethylphenoxy)pyridin-3-yl}-N-ethyl-6-methyl-7-oxo-6,7-dihydro-1H-pyrrolo[2,3-c]pyridine-2-carboxamide] has a Ki (BRD4 (BDI_K57-E168)) of 171 nM and a Ki (BRD4 (BDII_E352-M457)) of 3 nM.

In the case of `CCNC(=O)c1cc2c(-c3cc(C(O)(C(C)C)C4CC4)cnc3Oc3c(C)cccc3C)cn(C)c(=O)c2[nH]1` (stereo not drawn) [Example 26, 4-[5-(1-cyclopropyl-1-hydroxy-2-methylpropyl)-2-(2,6-dimethylphenoxy)pyridin-3-yl]-N-ethyl-6-methyl-7-oxo-6,7-dihydro-1H-pyrrolo[2,3-c]pyridine-2-carboxamide], the Ki (BRD4 (BDI_K57-E168)) is reported as 15 nM and the Ki (BRD4 (BDII_E352-M457)) is reported as 1.5 nM.

`CCNC(=O)c1cc2c(-c3cc(C(O)(C(C)CC)C4CC4)cnc3Oc3c(C)cccc3C)cn(C)c(=O)c2[nH]1` (stereo not drawn) [Example 27, 4-[5-(1-cyclopropyl-1-hydroxy-2-methylbutyl)-2-(2,6-dimethylphenoxy)pyridin-3-yl]-N-ethyl-6-methyl-7-oxo-6,7-dihydro-1H-pyrrolo[2,3-c]pyridine-2-carboxamide] showed a Ki (BRD4 (BDI_K57-E168)) of 44 nM and a Ki (BRD4 (BDII_E352-M457)) of 1.8 nM.

`CCNC(=O)c1cc2c(-c3cc(C(C)(C)O)ccc3Oc3c(C)cccc3C(F)(F)F)cn(C)c(=O)c2[nH]1` [Example 28, N-ethyl-4-{5-(2-hydroxypropan-2-yl)-2-[2-methyl-6-(trifluoromethyl)phenoxy]phenyl}-6-methyl-7-oxo-6,7-dihydro-1H-pyrrolo[2,3-c]pyridine-2-carboxamide] gave a Ki (BRD4 (BDI_K57-E168)) of 1180 nM and a Ki (BRD4 (BDII_E352-M457)) of 5.4 nM.

`CCNC(=O)c1cc2c(-c3cc(C(C)(C)O)cnc3Oc3c(C)cccc3Cl)cn(C)c(=O)c2[nH]1` [Example 29, 4-[2-(2-chloro-6-methylphenoxy)-5-(2-hydroxypropan-2-yl)pyridin-3-yl]-N-ethyl-6-methyl-7-oxo-6,7-dihydro-1H-pyrrolo[2,3-c]pyridine-2-carboxamide] gave a Ki (BRD4 (BDI_K57-E168)) of 594 nM and a Ki (BRD4 (BDII_E352-M457)) of 1.3 nM.

With `CCNC(=O)c1cc2c(-c3cc(C(C)(C)O)ccc3Oc3c(C)cccc3Cl)cn(C)c(=O)c2[nH]1` [Example 30, 4-[2-(2-chloro-6-methylphenoxy)-5-(2-hydroxypropan-2-yl)phenyl]-N-ethyl-6-methyl-7-oxo-6,7-dihydro-1H-pyrrolo[2,3-c]pyridine-2-carboxamide] the Ki (BRD4 (BDI_K57-E168)) was 279 nM and the Ki (BRD4 (BDII_E352-M457)) was 1.9 nM.

Work on `Cc1cccc(Cl)c1Oc1ccc(C(C)(C)O)cc1-c1cn(C)c(=O)c2[nH]c(C(=O)NC(C)(C)C)cc12` [Example 31, N-tert-butyl-4-[2-(2-chloro-6-methylphenoxy)-5-(2-hydroxypropan-2-yl)phenyl]-6-methyl-7-oxo-6,7-dihydro-1H-pyrrolo[2,3-c]pyridine-2-carboxamide] yielded a Ki (BRD4 (BDI_K57-E168)) of 260 nM and a Ki (BRD4 (BDII_E352-M457)) of 3.3 nM.

Work on `Cn1cc(-c2cc(C(C)(C)O)ccc2-c2ccc(F)cc2F)c2cc(C(=O)NC(C)(C)C)[nH]c2c1=O` [Example 33, N-tert-butyl-4-[2′,4′-difluoro-4-(2-hydroxypropan-2-yl)[1,1′-biphenyl]-2-yl]-6-methyl-7-oxo-6,7-dihydro-1H-pyrrolo[2,3-c]pyridine-2-carboxamide] yielded a Ki (BRD4 (BDI_K57-E168)) of 921 nM and a Ki (BRD4 (BDII_E352-M457)) of 6.4 nM.

In the case of `Cc1cccc(C)c1Oc1ncc(C(C)(C)O)cc1-c1cn(C)c(=O)c2[nH]c(C(=O)NC3(C)CC3(F)F)cc12` (stereo not drawn) [Example 34, N-(2,2-difluoro-1-methylcyclopropyl)-4-[2-(2,6-dimethylphenoxy)-5-(2-hydroxypropan-2-yl)pyridin-3-yl]-6-methyl-7-oxo-6,7-dihydro-1H-pyrrolo[2,3-c]pyridine-2-carboxamide], the Ki (BRD4 (BDI_K57-E168)) is reported as 729 nM and the Ki (BRD4 (BDII_E352-M457)) is reported as 5.1 nM.

For `Cc1cc(F)cc(C)c1Oc1ccc(C(C)(C)O)cc1-c1cn(C)c(=O)c2[nH]c(C(=O)NC(C)(C)C)cc12` [Example 36, N-tert-butyl-4-[2-(4-fluoro-2,6-dimethylphenoxy)-5-(2-hydroxypropan-2-yl)phenyl]-6-methyl-7-oxo-6,7-dihydro-1H-pyrrolo[2,3-c]pyridine-2-carboxamide], the Ki (BRD4 (BDI_K57-E168)) was 579 nM and the Ki (BRD4 (BDII_E352-M457)) was 3.4 nM.

`Cc1cccc(Cl)c1Oc1ncc(C(C)(C)O)cc1-c1cn(C)c(=O)c2[nH]c(C(=O)NC(C)(C)C)cc12` [Example 37, N-tert-butyl-4-[2-(2-chloro-6-methylphenoxy)-5-(2-hydroxypropan-2-yl)pyridin-3-yl]-6-methyl-7-oxo-6,7-dihydro-1H-pyrrolo[2,3-c]pyridine-2-carboxamide] was tested, and the Ki (BRD4 (BDI_K57-E168)) was 195 nM and the Ki (BRD4 (BDII_E352-M457)) was 3.7 nM.

`Cc1cccc(Cl)c1Oc1ncc(C(C)(C)O)cc1-c1cn(C)c(=O)c2[nH]c(C(=O)NC(C)(C)C(F)(F)F)cc12` [Example 38, 4-[2-(2-chloro-6-methylphenoxy)-5-(2-hydroxypropan-2-yl)pyridin-3-yl]-6-methyl-7-oxo-N-(1,1,1-trifluoro-2-methylpropan-2-yl)-6,7-dihydro-1H-pyrrolo[2,3-c]pyridine-2-carboxamide] was tested, and the Ki (BRD4 (BDI_K57-E168)) was 241 nM and the Ki (BRD4 (BDII_E352-M457)) was 5.7 nM.
